Each block holds one compound with its values, some of them ahead of it.
Experiments:
[1] = Chemical stability (open glass jar, 40° C., 75% relative humidity); type: physicochemical; settings: 50 mg, after one week
Procedure: After one week, the amount of test compound remaining was determined.

[2] = test system: Cryptococcus neoformans; test: Determination of fungal susceptibility (MIC); type: cell-based; settings: CYG medium, 5 days at 30° C., growth to 35% of control or less
Procedure: (§1) A panel of Candida isolates plus single isolates of the dermatophytes Microsporum canis, Trichophyton rubrum and T. mentagrophytes; Aspergillus fumigates, and Cryptococcus neoformans were used to evaluate the activity of the test compounds in vitro. Inocula were prepared as broth cultures (yeasts) or as suspensions of fungal material made from agar slope cultures (moulds). The test compounds were pipetted from DMSO stock solution into water to provide a series of 10-fold dilutions. The fungal inocula were suspended in the growth medium CYG (F. C. Odds, Journal of Clinical Microbiology, 29, (2735-2740, 1991) at approximately 50,000 colony-forming units (CFU) per ml and added to the aqueous test drugs. The cultures were set up in the 96 wells of plastic microdilution plates and they were incubated for 2 days at 37° C. (Candida spp.) or for 5 days at 30° C. (other fungi). Growth in the microcultures was measured by their optical density (OD) measured at a wavelength of 405 nm. The OD for cultures with test compounds was calculated as a percentage of the control, drug-free OD. Inhibition of growth to 35% of control or less was recorded as significant inhibition.
(§2) Minimal inhibitory concentration (MICs; in 10^−6 M) of intermediate 2 as the major metabolite and some of the compounds of formula (I) for Candida glabrata, Candida krusel, Candida parapsilosis, Candida albicans, Candida kefyr, Candida tropicalis, Microsporum canis, Trichophyton rubrum, Trichophyton mentagrophytes, Cryptococcus neoformans, Aspergillus fumigatus are listed in table 8.

[3] = test system: Candida parapsilosis; test: Determination of fungal susceptibility (MIC); type: cell-based; settings: CYG medium, 2 days at 37° C., growth to 35% of control or less
Procedure: as §1, §2

[4] = test system: Aspergillus fumigatus; test: Determination of fungal susceptibility (MIC); type: cell-based; settings: CYG medium, 5 days at 30° C., growth to 35% of control or less
Procedure: as §1, §2

[5] = test system: Candida kefyr; test: Determination of fungal susceptibility (MIC); type: cell-based; settings: CYG medium, 2 days at 37° C., growth to 35% of control or less
Procedure: as §1, §2

[6] = test system: Trichophyton mentagrophytes; test: Determination of fungal susceptibility (MIC); type: cell-based; settings: CYG medium, 5 days at 30° C., growth to 35% of control or less
Procedure: as §1, §2

[7] = test system: Trichophyton rubrum; test: Determination of fungal susceptibility (MIC); type: cell-based; settings: CYG medium, 5 days at 30° C., growth to 35% of control or less
Procedure: as §1, §2

[8] = test system: Candida krusei; test: Determination of fungal susceptibility (MIC); type: cell-based; settings: CYG medium, 2 days at 37° C., growth to 35% of control or less
Procedure: as §1, §2

[9] = test system: Candida tropicalis; test: Determination of fungal susceptibility (MIC); type: cell-based; settings: CYG medium, 2 days at 37° C., growth to 35% of control or less
Procedure: as §1, §2

[10] = test system: Candida glabrata; test: Determination of fungal susceptibility (MIC); type: cell-based; settings: CYG medium, 2 days at 37° C., growth to 35% of control or less
Procedure: as §1, §2

[11] = test system: Candida albicans; test: Determination of fungal susceptibility (MIC); type: cell-based; settings: CYG medium, 2 days at 37° C., growth to 35% of control or less
Procedure: as §1, §2

[12] = test system: Microsporum canis; test: Determination of fungal susceptibility (MIC); type: cell-based; settings: CYG medium, 5 days at 30° C., growth to 35% of control or less
Procedure: as §1, §2

[13] = test system: Aspergillus fumigatus; test: Disseminated aspergillosis in guinea-pigs; type: in vivo; settings: for CFU/g (liver): culture-positive livers post mortem; for % neg (total percentage culture-negative deep tissues): liver, spleen, kidney, lung and brain
Procedure: (§3) Specific pathogen-free (SPF) guinea-pigs (weighing 400-500 g) were used in all experiments. A catheter was placed into the left jugular vein of the animals that were treated by intravenous infusion, the vein was ligated, and the catheter was connected to a microprocessor-controlled infusion pump. The animals were infected with Aspergillus fumigatus (4,000 CFU/g body weight) or with Candida albicans (40,000 CFU/g body weight) either via the lateral vein of the penis or via the implanted catheter. Intravenous treatments (5 mg/kg/day) began 1 hour after infection. The test formulations were then administered on subsequent days as two, 1 hour infusions daily, separated by a period of 5 hours, for a total of 19 infusions or 9.5 days. Oral treatments with the test compounds (5 mg/kg/day) begun 1 hour after infection and were repeated twice daily up to the tenth day after infection (a total of 19 treatments. For each group of tested animals (number of tested animals per group given in column “N”), the mean survival time (MST) in days was recorded as well as the % survivors (% surv). Animals of each group which died during the experiment and those that survived the experiment and were killed, were investigated for counts of Aspergillus fumigatus and Candida albicans in deep tissue (liver, spleen, kidney, lung and brain) post mortem. The remaining CFU/g in the culture-positive livers was measured and expressed in table 9 (after intravenous treatment) and table 10 (after oral treatment) as mean log10 CFU/g. The columns “%neg” in tables 9 and 10 express the total percentage culture-negative deep tissues after the treatment.

[14] = test system: Candida albicans; test: Disseminated candidosis in guinea-pigs; type: in vivo; settings: for CFU/g (liver): culture-positive livers post mortem; for % neg (total percentage culture-negative deep tissues): liver, spleen, kidney, lung and brain
Procedure: as §3

[15] = i.v. treatment 5 mg/kg/day, 19 infusions, 9.5 days
[16] = oral treatment 5 mg/kg/day, twice daily, 19 treatments

Stability (amount of test compound remaining) [1]: 98.3%
Compound: CC(OC(=O)CCN)C(C)n1ncn(-c2ccc(N3CCN(c4ccc(OCC5COC(Cn6cncn6)(c6ccc(F)cc6F)O5)cc4)CC3)cc2)c1=O.O.O=C(O)C(=O)O (stereo not drawn) [Compound 13]

Compound: [2S-[2α,4α[(R*,R*)]]]-4-[4-[4-[4-[[2-(2,4-difluorophenyl)-2-(1H-1,2,4-triazol-1-ylmethyl)-1,3-dioxolan-4-yl]methoxy]-phenyl]-1-piperazinyl]phenyl]-2,4-dihydro-2-(2-hydroxy-1-methylpropyl)-3H-1,2,4-triazol-3-one [Interm. 2a]
MIC [2]: 1 10^−6 M
MIC [3]: 1 10^−6 M
MIC [4]: 1 10^−6 M
MIC [5]: <0.1 10^−6 M
MIC [6]: 1 10^−6 M
MIC [7]: 1 10^−6 M
MIC [8]: 1 10^−6 M
MIC [9]: 1 10^−6 M
MIC [10]: 10 10^−6 M
MIC [11]: 10 10^−6 M
MIC [12]: 1 10^−6 M

Compound: CCN(CC)CCC(=O)OC(C)C(C)n1ncn(-c2ccc(N3CCN(c4ccc(OCC5COC(Cn6cncn6)(c6ccc(F)cc6F)O5)cc4)CC3)cc2)c1=O.O.O=C(O)C=CC(=O)O (stereo not drawn) [Compound 15]
Stability (amount of test compound remaining) [1]: 90.4%

Compound: CC(C)CC(N)C(=O)OC(C)C(C)n1ncn(-c2ccc(N3CCN(c4ccc(OCC5COC(Cn6cncn6)(c6ccc(F)cc6F)O5)cc4)CC3)cc2)c1=O (stereo not drawn) [Compound 21]
CFU/g (liver) ([13]; i.v. treatment 5 mg/kg/day): 3.7 mean log10 CFU/g
CFU/g (liver) ([13]; oral treatment 5 mg/kg/day): 3.0 mean log10 CFU/g
% surv (% survivors) [13, 15]: 0%
MST (mean survival time) [13, 15]: 5.7 days
% neg (total percentage culture-negative deep tissues) ([13]; i.v. treatment 5 mg/kg/day): 46%
% neg (total percentage culture-negative deep tissues) ([13]; oral treatment 5 mg/kg/day): 55%
% surv (% survivors) [13, 16]: 40%
MST (mean survival time) [13, 16]: 7.0 days
Stability (amount of test compound remaining) [1]: 100.3%
MIC [2]: 1 10^−6 M
MIC [3]: 0.1 10^−6 M
MIC [4]: 1 10^−6 M
MIC [5]: 0.1 10^−6 M
MIC [6]: 1 10^−6 M
MIC [7]: <0.1 10^−6 M
MIC [8]: 1 10^−6 M
MIC [9]: 0.1 10^−6 M
MIC [10]: 10 10^−6 M
MIC [11]: 0.1 10^−6 M
MIC [12]: 1 10^−6 M
CFU/g (liver) ([14]; i.v. treatment 5 mg/kg/day): 2.7 mean log10 CFU/g
CFU/g (liver) ([14]; oral treatment 5 mg/kg/day): 0 mean log10 CFU/g
% surv (% survivors) [14, 15]: 16.7%
MST (mean survival time) [14, 15]: 6.5 days
% neg (total percentage culture-negative deep tissues) ([14]; i.v. treatment 5 mg/kg/day): 75%
% neg (total percentage culture-negative deep tissues) ([14]; oral treatment 5 mg/kg/day): 83%
% surv (% survivors) [14, 16]: 90%
MST (mean survival time) [14, 16]: 9.6 days

Stability (amount of test compound remaining) [1]: 31.0%
Compound: CC(N)C(=O)OC(C)C(C)n1ncn(-c2ccc(N3CCN(c4ccc(OCC5COC(Cn6cncn6)(c6ccc(F)cc6F)O5)cc4)CC3)cc2)c1=O.O.O=C(O)CCC(=O)O (stereo not drawn) [Compound 10]

Compound: C[C@H](OC(=O)CCN)[C@H](C)n1ncn(-c2ccc(N3CCN(c4ccc(OC[C@@H]5CO[C@@](Cn6cncn6)(c6ccc(F)cc6F)O5)cc4)CC3)cc2)c1=O.O.O=C(O)C[C@H](O)C(=O)O.O=C(O)C[C@H](O)C(=O)O (relative stereo) [Compound 12, [2S-[2α,4α-[(R*,R*)]]]-2-[4-[4-[4-[4-[[2-(2,4-difluorophenyl)-2-(1H-1,2,4-triazol-1-ylmethyl)-1,3-dioxolan-4-yl]methoxy]phenyl]-1-piperazinyl]phenyl]-4,5-dihydro-5-oxo-1H-1,2,4-triazol-1-yl]-1-methylpropyl β-alanine (S)-hydroxybutanedioate(1:2) monohydrate]
Stability (amount of test compound remaining) [1]: 96.1%

Compound: CCN(CC)CC(=O)OC(C)C(C)n1ncn(-c2ccc(N3CCN(c4ccc(OCC5COC(Cn6cncn6)(c6ccc(F)cc6F)O5)cc4)CC3)cc2)c1=O.O=C(O)C=CC(=O)O (stereo not drawn) [Compound 16, [2S-[2α,4α-[(R*,R*)]]]-2-[4-[4-[4-[4-[[2-(2,4-difluorophenyl)-2-(1H-1,2,4-triazol-1-ylmethyl)-1,3-dioxolan-4-yl]methoxy]phenyl]-1-piperazinyl]phenyl]-4,5-dihydro-5-oxo-1H-1,2,4-triazol-1-yl]-1-methylpropyl N,N-diethylglycine (E)-2-butenedioate]
CFU/g (liver) ([13]; i.v. treatment 5 mg/kg/day): 3.4 mean log10 CFU/g
CFU/g (liver) ([13]; oral treatment 5 mg/kg/day): 3.1 mean log10 CFU/g
% surv (% survivors) [13, 15]: 16.7%
MST (mean survival time) [13, 15]: 6.8 days
% neg (total percentage culture-negative deep tissues) ([13]; i.v. treatment 5 mg/kg/day): 29%
% neg (total percentage culture-negative deep tissues) ([13]; oral treatment 5 mg/kg/day): 48%
% surv (% survivors) [13, 16]: 40%
MST (mean survival time) [13, 16]: 6.5 days
Stability (amount of test compound remaining) [1]: 100.3%
MIC [2]: 1 10^−6 M
MIC [3]: <0.1 10^−6 M
MIC [4]: 1 10^−6 M
MIC [5]: <0.1 10^−6 M
MIC [6]: 1 10^−6 M
MIC [7]: <0.1 10^−6 M
MIC [8]: 1 10^−6 M
MIC [9]: <0.1 10^−6 M
MIC [10]: 10 10^−6 M
MIC [11]: <0.1 10^−6 M
MIC [12]: 1 10^−6 M
CFU/g (liver) ([14]; i.v. treatment 5 mg/kg/day): 0 mean log10 CFU/g
CFU/g (liver) ([14]; oral treatment 5 mg/kg/day): 0 mean log10 CFU/g
% surv (% survivors) [14, 15]: 66.7%
MST (mean survival time) [14, 15]: 9.3 days
% neg (total percentage culture-negative deep tissues) ([14]; i.v. treatment 5 mg/kg/day): 79%
% neg (total percentage culture-negative deep tissues) ([14]; oral treatment 5 mg/kg/day): 73%
% surv (% survivors) [14, 16]: 90%
MST (mean survival time) [14, 16]: 9.6 days

Compound: CC(C)C(N)C(=O)OC(C)C(C)n1ncn(-c2ccc(N3CCN(c4ccc(OCC5COC(Cn6cncn6)(c6ccc(F)cc6F)O5)cc4)CC3)cc2)c1=O (stereo not drawn) [Compound 18]
CFU/g (liver) ([13]; i.v. treatment 5 mg/kg/day): 3.1 mean log10 CFU/g
CFU/g (liver) ([13]; oral treatment 5 mg/kg/day): 3.2 mean log10 CFU/g
% surv (% survivors) [13, 15]: 16.7%
MST (mean survival time) [13, 15]: 5.3 days
% neg (total percentage culture-negative deep tissues) ([13]; i.v. treatment 5 mg/kg/day): 29%
% neg (total percentage culture-negative deep tissues) ([13]; oral treatment 5 mg/kg/day): 20%
% surv (% survivors) [13, 16]: 0%
MST (mean survival time) [13, 16]: 5.2 days
Stability (amount of test compound remaining) [1]: 101.7%
MIC [2]: 1 10^−6 M
MIC [3]: <0.1 10^−6 M
MIC [4]: 1 10^−6 M
MIC [5]: <0.1 10^−6 M
MIC [6]: 1 10^−6 M
MIC [7]: 10 10^−6 M
MIC [8]: 1 10^−6 M
MIC [9]: <0.1 10^−6 M
MIC [10]: 10 10^−6 M
MIC [11]: <0.1 10^−6 M
MIC [12]: 10 10^−6 M
CFU/g (liver) ([14]; i.v. treatment 5 mg/kg/day): 0 mean log10 CFU/g
CFU/g (liver) ([14]; oral treatment 5 mg/kg/day): 0 mean log10 CFU/g
% surv (% survivors) [14, 15]: 66.7%
MST (mean survival time) [14, 15]: 9.2 days
% neg (total percentage culture-negative deep tissues) ([14]; i.v. treatment 5 mg/kg/day): 92%
% neg (total percentage culture-negative deep tissues) ([14]; oral treatment 5 mg/kg/day): 68%
% surv (% survivors) [14, 16]: 100%
MST (mean survival time) [14, 16]: 10 days
